In patent US20150314007A1, “LINKER-PAYLOAD MOLECULE CONJUGATES” (GLYKOS FINLAND OY, priority 2012, published 2015):
Where a SMILES comes first, the peptide text is derived from it. [ ]: non-standard residue; d: D form. The star is where a group is joined. Dolaproine = CO[C@@H]([C@@H]1CCCN1)[C@@H](C)C(=O)O; Dil = CC[C@H](C)[C@H](NC)[C@@H](CC(=O)O)OC; Doe = c1ccc(C[C@H](N*)c2nccs2)cc1; NMeV = CN[C@H](C(=O)O)C(C)C

System: Human ovarian cancer cell line SKOV-3
Experiment: In vitro cytotoxicity, SKOV-3 cell viability (PrestoBlue)
Conditions: for cytotoxicity compared with 1 (MMAF): SKOV-3, applied to the cell culture medium; for cytotoxicity compared with 2 (monomethyldolastatin 10): SKOV-3
[1] = SKOV-3, 96 h, concentration range wherein viability falls to 50%, measured range 1 nM-10 μM

Method: Human ovarian cancer cell line SKOV-3 was from the ATCC (Manassas, Va., USA). The cells were grown according to the manufacturer's recommendations. Log phase cultures were collected and 5000 cells/well were seeded onto 96-well plates and incubated for 24 h. Serial dilutions of test molecules from a stock solution of 100 μM in 10% DMSO were made in cell culture medium, added to cells (maximum concentration of dimethylsulphoxide was 1%) and cultures were incubated further for 96 h. Cell viability was evaluated using PrestoBlue cell viability reagent (Life Technologies, Carlsbad, Calif., USA) according to the manufacturer's instructions. Cells were incubated for 2 h, and dye reduction was measured by absorbance at 570 nm. The compounds were assayed 1-2 times in triplicate.

Row | Compound | IC50 [1] [nM] | IC50 (Homo sapiens, SK-OV-3, 96 h) [nM] | cytotoxicity compared with 1 (MMAF) | cytotoxicity compared with 2 (monomethyldolastatin 10)
1 | CC[C@H](C)[C@@H]([C@@H](CC(=O)N1CCC[C@H]1[C@H](OC)[C@@H](C)C(=O)N[C@@H](Cc1ccccc1)C(=O)O)OC)N(C)C(=O)[C@@H](NC(=O)[C@@H](NC)C(C)C)C(C)C [Compound 1, Monomethylauristatin F, reference compound] (HELM PEPTIDE1{[meV].V.[CC[C@H](C)[C@@H]([C@@H](CC(=O)[*:2])OC)N(C)[*:1]].[CO[C@H]([C@@H](C)C(=O)[*:2])[C@@H]1CCCN1[*:1]].F}$$$$V2.0) | 100 to 1000 |  |  | 
2 | CC[C@H](C)[C@@H]([C@@H](CC(=O)N1CCC[C@H]1[C@H](OC)[C@@H](C)C(=O)N[C@@H](Cc1ccccc1)c1nccs1)OC)N(C)C(=O)[C@@H](NC(=O)[C@@H](NC)C(C)C)C(C)C [Compound 2, monomethyldolastatin 10, reference compound] (H-[NMeV]V[Dil][Dolaproine]-Doe) | < 1 |  |  | 
3 | CCC(C)C(C(CC(=O)N1CCCC1C(OC)C(C)C(=O)NC(Cc1ccccc1)C(=O)O)OC)N(C)C(=O)C(NC(=O)C(C(C)C)N(C)CCC(O)C(O)C(O)CO)C(C)C [Compound 5, N-(2-deoxy-D-glucosyl)-MMAF] |  | 1000 | equally or only slightly less cytotoxic | 
4 | C#CCCN(C)C(C(=O)NC(C(=O)N(C)C(C(C)CC)C(CC(=O)N1CCCC1C(OC)C(C)C(=O)NC(Cc1ccccc1)C(=O)O)OC)C(C)C)C(C)C (centres unmarked) [Compound 6, N-(3-butynyl)-MMAF] |  | < 1 | more cytotoxic | 
5 | CCC(C)C(C(CC(=O)N1CCCC1C(OC)C(C)C(=O)NC(Cc1ccccc1)C(=O)O)OC)N(C)C(=O)C(NC(=O)C(C(C)C)N(C)CC(O)C(O)C(O)C(O)COC1OC(CO)C(O)C(O)C1O)C(C)C [Compound 8, N-[6-O-(β-D-galactopyranosyl)-D-galactosyl]-MMAF] |  | 1000 to 10000 | less cytotoxic | 
6 | CCC(C)C(C(CC(=O)N1CCCC1C(OC)C(C)C(=O)NC(Cc1ccccc1)C(=O)O)OC)N(C)C(=O)C(NC(=O)C(C(C)C)N(C)CC(O)C(O)C(OC1OC(CO)C(OC2OC(CO)C(O)C(O)C2O)C(O)C1O)C(O)CO)C(C)C [Compound 10, N-{4-O-[4-O-(α-D-galactopyranosyl)-β-D-galactopyranosyl]-D-glucosyl}-MMAF] |  | 1000 to 10000 |  | 
7 | CCC(C)C(C(CC(=O)N1CCCC1C(OC)C(C)C(=O)NC(Cc1ccccc1)C(=O)O)OC)N(C)C(=O)C(NC(=O)C(C(C)C)N(C)CC(O)C(O)C(OC1OC(CO)C(O)C(OC2(C(=O)O)CC(O)C(NC(C)=O)C(C(O)C(O)CO)O2)C1O)C(O)CO)C(C)C [Compound 11, N-{4-O-[3-O-(α-N-acetylneuraminyl)-β-D-galactopyranosyl]-D-glucosyl}-MMAF] |  | > 10000 | less cytotoxic | 
8 | CCC(C)C(C(CC(=O)N1CCCC1C(OC)C(C)C(=O)NC(Cc1ccccc1)c1nccs1)OC)N(C)C(=O)C(NC(=O)C(C(C)C)N(C)CC(O)C(O)C(O)C(O)CN=[N+]=[N-])C(C)C [Compound 13, N-(6-azido-6-deoxy-D-galactosyl)-dolastatin 10] |  | < 1 |  | equally or only slightly less cytotoxic
9 | N-(6-O-propargyl-D-galactosyl)-MMAF [Compound 3] | 100 to 10000 |  |  | 
10 | N-(6-azido-6-deoxy-D-galactosyl)-MMAF [Compound 4] | 100 to 1000 |  |  | 
11 | N-glutaryl-MMAF [Compound 14b] | 100 to 1000 |  |  | equally or only slightly less cytotoxic
